Test results: US12276654B2, “Chemical probe-dependent evaluation of protein activity and uses thereof” (The University of Chicago, priority 2017, dated 2025)
Entries after “also recorded” stand apart in the source; their conditions may differ.

Experiments:
Type in all cases: cell-based
[1] = target: T1, NCEH1 (Homo sapiens, UniProt Q6PIU2); assay: α-Biotin Western blot gel-based profiling of NCEH1 activity (FP-Bio labeling) in SKOV3 cells; design: endogenous NCEH1 activity in SKOV3 cells; endogenous in cells; host or cells: SKOV3; conditions: 1 μM, 4 hr pre-treatment, equivalent NCEH1 protein levels
T1 sequence (Q6PIU2 1-408): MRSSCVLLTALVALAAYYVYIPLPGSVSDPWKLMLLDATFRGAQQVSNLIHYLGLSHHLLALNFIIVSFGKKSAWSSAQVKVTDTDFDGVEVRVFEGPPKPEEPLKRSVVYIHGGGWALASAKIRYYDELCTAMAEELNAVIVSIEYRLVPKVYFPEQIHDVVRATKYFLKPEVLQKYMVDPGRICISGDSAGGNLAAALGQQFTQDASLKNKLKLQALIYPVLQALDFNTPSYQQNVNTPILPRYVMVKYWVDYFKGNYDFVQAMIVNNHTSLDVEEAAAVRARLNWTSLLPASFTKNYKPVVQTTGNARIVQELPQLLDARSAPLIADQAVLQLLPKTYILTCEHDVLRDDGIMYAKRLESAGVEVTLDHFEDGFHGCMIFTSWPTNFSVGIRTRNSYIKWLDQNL
Description: Cells were grown in 6-well plates or 6-cm dishes until reaching 80-90% confluence. FP-biotin (FP-Bio, 10 mM stock in DMSO) was diluted to 2 μM in DMEM, and added to cells at 37° C. for 40 minutes. Cells were then washed in PBS, scraped and lysed by sonication using PBS buffer supplemented with protease inhibitor cocktail (Sigma, #92714-1BTL). Protein concentration was determined by BCA assay (Pierce, #23225), lysate was diluted in Laemmli buffer (4×: 200 mM Tris pH 6.8, 400 mM DTT, 8% SDS, 0.4% bromophenol, 40% glycerol), heated to 95° C. for 5 minutes, and resolved on a 4-12% PAGE gel (ThermoFisher, NP0322BOX). PAGE gels were processed for Western blot as indicated above with IR800-conjugated streptavidin (LI-COR, #926-32230) overnight at 4° C. Images were captured by Odyssey CLx imaging system (LI-COR). Quantification of band intensities was performed using ImageJ software (NIH).

[2] = target: T1, NCEH1; assay: sADPL in situ target engagement in cancer cells, NCEH1; design: endogenous NCEH1 activity in SKOV3 cells; endogenous in cells; host or cells: SKOV3; wild-type PC3; PAFAH2-expressing PC3; conditions: inhibitor prior to family-wide probe
Description: FIG. 23. In situ Target Engagement. Cancer cells were treated with DMSO as the control, with inhibitor prior to family wide probe to pre-block the active site, or with family-wide probe directly. Then sADPL workflow was applied to read out the CT difference. Serine hydrolase NCEH1 and its specific inhibitor JW480, or FAAH and inhibitor PF3845 were applied. The activity fold change was transformed from CT value with PCR amplification factor 1.91 determined by a standard qPCR curve and the activities were normalized to DMSO control at different cell lysate concentrations. […] To quantitatively measure the target engagement, different dose of JW480 was applied to either its target NCEH1, or off-target MGLL.
As another alternative detection method, sADPL is complementary with gel-based and MS-based detection methods. In this design, the inventors treat the live cell with several family-wide probes. The probes will label all the members of the protein families. Then one could get the labeled proteome after the cell lysis. […]
A summary of this assay is provided below: • 1. […] In the oligo design, the orthogonal forward primers were employed for different antibody to enable the multiplexing real time PCR readout. […]
Two amine modified oligos were conjugated to antibody and streptavidin, respectively. […] A Taqman probe was designed for real time PCR quantification. […]

[3] = target: T1, NCEH1; assay: sADPL target engagement in patient-derived hPBMCs; design: The human peripheral blood mononuclear cells (hPBMCs) were extracted from patient-derived blood samples; endogenous in cells; host or cells: primary human PBMCs from patient blood; conditions: hPBMCs from patient-derived blood; inhibitor prior to family-wide probe
Description: FIG. 24. Target Engagement in Patient-derived PBMCs. The human peripheral blood mononuclear cells (hPBMCs) were extracted from patient-derived blood samples. Likewise, hPBMCs were treated with DMSO as the control, with inhibitor prior to family wide probe to pre-block the active site, or with family-wide probe directly. Then sADPL workflow was applied to read out the CT difference.

## CC(C)c1ccccc1OC(=O)NCCc1ccc2ccccc2c1 [JW480]
[1]
  NCEH1 activity by gel-based profiling (FP-Bio labeling): significant and selective inhibition of NCEH1 activity; also recorded: specifically inhibits labeling of NCEH1
[2]; cancer cells treated in situ, read-out: apparent IC50, dose-dependent inhibition of NCEH1 by sADPL
  IC50: 17.8 nM
[2]; cancer cells
  NCEH1 activity in inhibitor competition group by sADPL, normalized to DMSO control: bring the activities down to the levels of DMSO controls
[3]
  activity in inhibitor competition group by sADPL in hPBMCs: bring the activities down to the levels of DMSO controls
